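96-well plates; 48 h exposure; 5 concentrations. Endpoints by linear interpolation between flanking doses. Not reached: highest tested concentration assigned. Here, GI50 denotes the concentration required for 50% inhibition of growth.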 Activity calls are given as the source filed them. Cut-off read from the data, not from the text of the source: active = GI50 up to about 1.1 µM and inactive = higher.
Legend:
Assay in all cases: DTP human tumour cell line panel, 48 h
[1] = system: NCI-H522
[2] = system: SW-620
[3] = system: MDA-MB-231
[4] = system: OVCAR-3
[5] = system: ACHN
[6] = system: SF-295
[7] = system: SN12C
[8] = system: TK-10
[9] = system: MCF7
[10] = system: COLO 205
[11] = system: NCI-H226
[12] = system: NCI-H460
[13] = system: RPMI-8226
[14] = system: IGROV-1
[15] = system: EKVX
[16] = system: SK-MEL-5
[17] = system: NCI-H23
[18] = system: HCT-116
[19] = system: HCC 2998

Measured: GI50

N/C(=N\c1ccc(Cl)cc1)NS(=O)(=O)c1ccc(S(=O)(=O)c2ccccc2)s1
inactive: [1] 14.5 µM | [2] 19 µM | [3] 12.9 µM | [4] 25.4 µM | [5] 20.9 µM | [6] 15.1 µM | [7] 17.5 µM | [8] 21.2 µM | [9] 17.2 µM | [10] 18.4 µM | [11] 26.4 µM | [12] 17.3 µM | [13] 16.6 µM | [14] 13.8 µM | [15] 12.9 µM | [16] 15.8 µM | [17] 17.7 µM | [18] 15.4 µM

Cc1ccc(S(=O)(=O)CN2C(=O)C(c3ccccc3)(c3ccccc3)C23OC(c2ccc(Cl)cc2)=CC3=O)cc1 (centres undefined)
inactive: [1] > 10 µM | [2] > 10 µM | [3] > 10 µM | [4] > 10 µM | [5] > 10 µM | [6] > 10 µM | [19] > 10 µM | [7] > 10 µM | [8] > 10 µM | [9] > 10 µM | [10] > 10 µM | [11] > 10 µM | [12] > 10 µM | [14] > 10 µM | [15] > 10 µM | [16] > 10 µM | [17] > 10 µM | [18] > 10 µM

CC(C)CC1c2[nH]c3ccccc3c2C[C@H]2C(=O)NC(CCC(=O)OC(C)(C)C)C(=O)N12 (some centres undefined)
inactive: [1] 25.2 µM | [2] 45 µM | [3] 27.2 µM | [4] 16.8 µM | [5] 30.8 µM | [6] 19.4 µM | [7] 22.8 µM | [8] 25.8 µM | [9] 36.9 µM | [10] 20.6 µM | [11] 49.7 µM | [13] 25.8 µM | [14] 33.5 µM | [15] 35.2 µM | [16] 25.9 µM | [17] 34.6 µM | [18] 28.8 µM

COc1ccc2c(c1)c1c(n2CCN2CCOCC2)-c2cccc(OC)c2CC1
inactive: [1] 20.2 µM | [2] 36.8 µM | [3] 27.6 µM | [4] 52.7 µM | [5] 37 µM | [6] 30.7 µM | [19] 26.6 µM | [7] 47.2 µM | [8] 44.6 µM | [9] 23.5 µM | [10] 15.2 µM | [11] 24.4 µM | [12] 38.9 µM | [13] 16.9 µM | [14] 43.1 µM | [16] 41.6 µM | [17] 52.8 µM | [18] 33.7 µM

CC(=O)OCC1OC(c2nnc(C)o2)=CC(OC(C)=O)C1OC(C)=O (centres undefined)
inactive: [1] > 100 µM | [2] > 100 µM | [3] > 100 µM | [4] > 100 µM | [5] > 100 µM | [6] > 100 µM | [7] > 100 µM | [8] > 100 µM | [9] > 100 µM | [10] > 100 µM | [11] > 100 µM | [12] > 100 µM | [13] > 100 µM | [14] > 100 µM | [15] > 100 µM | [16] > 100 µM | [17] > 100 µM | [18] > 100 µM

CCc1nn(CN2CCOCC2)c(=S)n1/N=C/c1ccc(-c2ccc(Cl)cc2)o1
inactive: [1] > 100 µM | [2] > 100 µM | [3] > 100 µM | [4] > 100 µM | [5] > 100 µM | [6] > 100 µM | [8] > 100 µM | [9] > 100 µM | [11] > 100 µM | [12] > 100 µM | [13] 51.5 µM | [14] > 100 µM | [15] > 100 µM | [16] > 100 µM | [17] > 100 µM | [18] > 100 µM

CC1N=C(c2ccccc2)OC1=O (centres undefined)
inactive: [1] > 100 µM | [2] > 100 µM | [3] > 100 µM | [4] > 100 µM | [5] > 100 µM | [6] > 100 µM | [7] > 100 µM | [8] > 100 µM | [9] > 100 µM | [10] > 100 µM | [11] > 100 µM | [12] > 100 µM | [13] > 100 µM | [14] > 100 µM | [15] > 100 µM | [16] > 100 µM | [17] > 100 µM | [18] > 100 µM

O=C(Nc1ccc2[nH]c(C(=O)N3CC(CCl)c4c3cc([N+](=O)[O-])c3ccccc43)cc2c1)Nc1ccc2[nH]c(C(=O)N3CC(CCl)c4c3cc([N+](=O)[O-])c3ccccc43)cc2c1 (centres undefined)
inactive: [1] > 100 µM | [3] 27.5 µM | [4] > 100 µM | [5] > 100 µM | [6] > 100 µM | [7] > 100 µM | [8] > 100 µM | [9] > 100 µM | [10] > 100 µM | [11] > 100 µM | [12] > 100 µM | [13] 85.7 µM | [15] > 100 µM | [16] > 100 µM | [17] > 100 µM | [18] > 100 µM

From ChEMBL document CHEMBL1201862, “PubChem BioAssay data set” (2004)
